Data published in patent publication US20220380383A1, “NEUROPROTECTIVE PDI MODULATING SMALL MOLECULES AND METHODS OF USE THEREOF” (THE TRUSTEES OF COLUMBIA UNIVERSITY IN THE CITY OF NEW YORK, priority 2018, published 2022).
Converted amounts (≈) assume the structure as drawn. Where two headings read alike, the source gives them in different places.

Tests used:
[1] = biological target: T1, human catalytic PDI A1 a domain (PDIa) (Homo sapiens, UniProt P07237); test: Isothermal titration calorimetry (ITC) binding to PDIa
T1 construct: made in house; host or cells: Escherichia coli BL21-Gold (DE3)
Method: All ITC experiments were carried out at 25° C. on MicoCal Auto-ITC200 system (GE Healthcare). […] ITC titration experiments were carried out at 25° C. with 19 injections, 2 μl per injection, and 180 seconds between each injection. The reference cell power was set to 5 μcal/sec. A control experiment was performed for each compound, where each compound was titrated into buffer to account for heat released due to dilution. This background was subtracted from test data before a final dissociation constant was obtained. […] Gibbs free energy, ΔG, was calculated from equation ΔG=ΔH-TΔS. All other parameters, Ka, n, ΔH, ΔS, were determined directly from the titration data.
LOC14 analogs were designed and synthesized as described in the synthetic schemes. The analogs were evaluated for their binding to PDIa using isothermal titration calorimetry (ITC) (results of certain compounds are shown in FIGS. 1A-1E). Next, the analogs were tested for their ability to rescue PC12 cells from mHTT^Q103 induced cell death in a dose-dependent manner (results of certain compounds are shown in FIG. 2).

PC12 mHTTQ103 cells = test: Rescue of PC12 cells from mHTTQ103-induced cell death; assay type: cell-based, rat; settings: for EC50: Rattus norvegicus, PC-12
[2] = Solubility (stock solvent)
[3] = Tables 5-13, PC12 cells, read-out: EC50
[4] = rescue from mHTTQ103 induced cell death
[5] = Tables 5-13, solvent not given (DMSO in Table 1)
[6] = Tables 5-13, NA = not active, read-out: Kd
[7] = N/A = not active, read-out: ITC KD

T1 sequence (P07237 18-134): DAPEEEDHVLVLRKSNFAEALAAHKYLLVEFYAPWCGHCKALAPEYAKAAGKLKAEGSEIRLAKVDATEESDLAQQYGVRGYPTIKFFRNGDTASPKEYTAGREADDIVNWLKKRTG

| SMILES | ITC KD ([1]; N/A = not active) | EC50 (PC12 mHTTQ103 cells; [3]) [nM] | Max Viability (%) (PC12 mHTTQ103 cells; Tables 5-13, PC12 cells) | PC12 cells Max % Viability (PC12 mHTTQ103 cells; [4]) [%] | Solubility [2] [mM in DMSO] | Solubility [2, 5] [mM] | PC12 cells EC50 (PC12 mHTTQ103 cells; [4]) | Solubility ([2]; in water) [mM in water] | Kd [1, 6] [nM] | Kd [1, 7] [nM] | EC50 (PC12 mHTTQ103 cells; rescue from mHTTQ103 induced cell death, read-out: PC12 cells EC50) [nM] |
| --- | --- | --- | --- | --- | --- | --- | --- | --- | --- | --- | --- |
| C[C@@H](NC(=O)c1ccccc1S)c1ccccc1 [LC-28] | KD = N/A irreversible or not active | 808 | 56 | 55.52 | 100 | 100 (≈ 25.7 mg/mL) |  |  |  |  |  |
| Cn1sccc1=O [LC-35] | KD = N/A irreversible or not acitve |  | 15 | 14.63 |  | 100 (≈ 11.5 mg/mL) | Not Active | 100 |  |  |  |
| O=C(C1CC1)N1CCN(Cn2sc3c(C(F)(F)F)cccc3c2=O)CC1 [LC-42] | KD = N/A irreversible or not active |  | 8 | 8.17 | 100 | 100 (≈ 38.5 mg/mL) | Not Active |  |  |  |  |
| COCCn1sc2ccccc2c1=O [LC-32] |  | 700 | 42 | 41.96 | 100 | 100 (≈ 20.9 mg/mL) |  |  | 158 |  |  |
| O=c1ssc2ccccc12 [LC-48] | KD = N/A irreversible or not active |  | 8 | 8.14 | 100 | 100 (≈ 16.8 mg/mL) | Not Active |  |  |  |  |
| CC(=O)c1ccc(N2CCN(Cn3sc4ccccc4c3=O)CC2)cc1 [LC-13] |  | 514 | 63 | 63.14 | 100 | 100 (≈ 36.7 mg/mL) |  |  | 190 ± 27 |  |  |
| O=C(Nc1ccccc1)n1sc2ccccc2c1=O [LC-6] | KD = N/A irreversible or not active | 476 | 66 | 66.47 | 30 | 30 (≈ 8.11 mg/mL) |  |  |  |  |  |
| Cc1ccc2s[nH]c(=O)c2c1 [LC-61, 5-Methylbenzo[d]isothiazol-3(2H)-one] |  | 591 | 65 | 64.68 | 100 | 100 (≈ 16.5 mg/mL) |  |  | 267 | 267 | 591 |
| O=c1[nH]sc2c(C(F)(F)F)cccc12 [LC-41] | KD = N/A irreversible or not active |  | 9 | 9.16 | 100 | 100 (≈ 21.9 mg/mL) | Not Active |  |  |  |  |
| O=c1c2ccccc2sn1CN1CCCCC1 [LC-1] |  | 459 | 67 | 66.57 | 100 | 100 (≈ 24.8 mg/mL) |  |  | 107 |  |  |
| O=C(Nc1ccc(N2CCOCC2)cc1)c1ccccc1S [LC-21] | KD = N/A irreversible or not active | 696 | 32 | 31.98 | 100 | 100 (≈ 31.4 mg/mL) |  |  |  |  |  |
| O=c1c2cccnc2sn1CCC1CCNCC1 [LC-56] | KD = N/A irreversible or not active |  | 14 | 14.03 | 100 | 100 (≈ 26.3 mg/mL) | Not Active |  |  |  |  |
| O=c1[nH]sc2ncccc12 [LC-47, isothiazolo[5,4-b]pyridin-3(2H)-one] | KD = N/A irreversible or not active | > 50000 | 36 | 36.31 |  |  |  |  |  |  |  |
| O=c1c2ccccc2sn1CN1CCC(O)CC1 [LC-7] |  | 441 | 72 | 71.98 | 100 | 100 (≈ 26.4 mg/mL) |  |  |  |  |  |
| Cc1nnc2s[nH]c(=O)c2c1C [LC-57, 4,5-dimethylisothiazolo[5,4-c]pyridazin-3(2H)-one] |  | 12200 | 54 | 54.15 | 100 | 100 (≈ 18.1 mg/mL) |  |  | 18 | 17.5 |  |
| O=C(C1CC1)N1CCN(C(=O)n2sc3ccccc3c2=O)CC1 [LC-14] | KD = N/A irreversible or not active | > 50000 | 34 | 33.58 |  |  |  |  |  |  |  |
| O=C(Nc1ccccc1)c1ccccc1S [LC-19] | KD = N/A irreversible or not active |  |  |  |  |  |  |  |  |  |  |
